Source: US8735650B2, “Methods of modulating production of phenylpropanoid compounds in plants” (Yissum Research Development Company of the Hebrew …, priority 2007, dated 2014)

Assays:
control petunia flowers = test: Phe feeding, volatile emission by dynamic headspace GC-MS; format: in vivo, Petunia hybrida; conditions: during the night
Experimental: (§1) Volatiles emitted from detached petunia flowers were collected using an adsorbent trap consisting of a glass tube containing 200 mg of polymer Porapak Type Q (80/100 mesh; Alltech, Deerfield, Ill.) held in place with plugs of silanized glass wool (Guterman et al., 2006). Trapped volatiles were eluted using 3 ml hexane, and 2 μg iso-butylbenzene was added per sample as an internal standard for each. To determine pool sizes of volatile compounds, limbs were ground in liquid nitrogen and extracted in hexane (4 ml g^−1 of tissue) containing 0.5 μg ml^−1 iso-butylbenzene as the internal standard. Following overnight incubation with shaking at 150 rpm, extract was centrifuged at 10,500 g for 10 min and the supernatant filtered through a 25-ml syringe with a […] sterile nylon filter. To assess whether the bound form of benzaldehyde accumulated in petunia limbs, tissue (0.6 g) was incubated with 9 ml phosphate citrate buffer pH 4.5 with or without 15 units of glucosidase mixture Novarom G (Novo Nordisk Ferment Ltd., Bagsvaerd, Denmark) at 37° C. overnight, and then transferred to −20° C. to stop enzymatic reactions. Hexane (10 ml) containing 0.5 μg ml^−1 iso-butylbenzene as an internal standard was added to each sample, and following vortexing, the upper phase was recovered.
(§2) GC-MS analysis was performed using a device composed of a Pa1 auto-sampler (CTC Analytic, Zwingen, Switzerland), a TRACE GC 2000 equipped with an Rtx-5SIL MS (Restek, i.d. 0.25 μm, 30 m×0.25 mm) fused-silica capillary column, and a TRACE DSQ quadrupole mass spectrometer (ThermoFinnigan, Hemel, UK). Helium was used as the carrier gas at a flow rate of 0.9 ml min^−1. The injection temperature was set to 250° C. (splitless mode), the interface to 280° C., and the ion source adjusted to 200° C. The analysis was performed under the following temperature program: 5 min of isothermal heating at 50° C., followed by a 5° C. min^−1 oven temperature ramp to […], and a final increase from 250 to 280° C. at 10° C. min^−1. The transfer line temperature was 280° C. The system was equilibrated for 1 min at 70° C. before injection of the next sample. Mass spectra were recorded at 2 scan s^−1 with a scanning range of 40 to 450 mass-to-charge ratio, and an electron energy of 70 eV. Compounds were tentatively identified (>95% match) based on NIST/EPA/NIH Mass Spectral Library (Data Version: NIST 05, Software Version 2.0d) using the XCALIBUR v1.3 program (ThermoFinnigan) library. Further identification of compounds was based on comparison of mass spectra and retention times with those of authentic standards (Sigma, Milwaukee, Wis.) analyzed under similar conditions.
(§3) For evaluating the affect of Phe feeding on volatile production, control and Pap1-transgenic flowers were collected at 0800 hour and 1600 hour, placed in a glass vial containing 10 ml of water with or without 5 mg L-phenylalanine (Duchefa, Haarlem, Netherlands) and headspace was collected during the day (0800-1600 hours) and night (1600-0800 hours). To assess internal pools of volatiles, control and Pap1-transgenic flowers collected at 1600 hour were placed in a glass vial containing 10 ml of water with or without L-phenylalanine and at 2300 hour volatile were extracted as above.

[1] = system: Pap1-transgenic petunia flowers; test: as above; format: in vivo, Petunia hybrida
Experimental: as §1, §2, §3

[2] = Phe fed vs non-fed Pap1-transgenic flowers, during the day

`N[C@@H](Cc1ccccc1)C(=O)O` [Phe, L-phenylalanine] was tested, and the “reduction in benzaldehyde emission” value (control petunia flowers) was 2-3 fold, the “reduction in methylbenzoate emission” value (control petunia flowers) was 2-3 fold and the “volatile accumulation and emission” value ([1]; Pap1-transgenic flowers, Phe feeding during the night) was “unaffected”. The “increase in benzaldehyde emission” value [1, 2] was “about 7 fold” and the “increase in methylbenzoate emission” value [1, 2] was roughly 5 fold.
